Two compounds from US8399514B2, “Treatment for multiple sclerosis” (Biogen Idec MA Inc., priority 2007, dated 2013) can be followed below.

For assay [1], the system named is Nrf2. Put plainly: Nrf2 immunohistochemistry of spinal cord tissues in MOG 35-55 induced EAE. It counts as in vivo. As to conditions: EAE mice, oral gavage twice a day from day 3 p.i., DMF 5 or 15 mg/kg, MMF 15 mg/kg. The procedure:
For induction of EAE, mice received s.c. injections in the flanks and tail base of 50 μg MOG 35-55 peptide in PBS emulsified in an equal volume of complete Freund's adjuvant (CFA) containing Mycobacterium tuberculosis H37RA (Difco, Detroit Mich., USA) at a final concentration of 0.5 mg/ml. Two injections of pertussis toxin (List Biological Laboratories Inc., California, USA; […] i.p) were given on days 0 and 2.
DMF and MMF was diluted in 200 μl 0.08% Methocel/H2O as vehicle and administered by oral gavage starting from day 3 post immunization (p.i) until termination. Each treatment group consisted of 8 animals: vehicle alone as a negative control, 5 mg/kg body weight DMF twice a day, 15 mg/kg body weight DMF twice a day, 15 mg/kg body weight MMF twice a day. The compounds were obtained via Fumapharm AG. Oral gavage was used to ensure exact dosing and to avoid compound degradation.
Spinal cord tissues were fixed in 4% paraformaldehyde and embedded in paraffin. […]
Immunohistochemistry was performed using the Dako autostainer as follows. […] The rabbit anti Nrf2 antibody C-20 (sc-722, Santa Cruz Biotechnology) was added at a 1:250 dilution in Dako Diluent with Background Reducing Components (Dako # S3022) C-20 antibody was detected using the Envision anti rabbit labeled polymer-HRP (Dako #K4003) and DAB (Vector Labs #SK-4100) was used as the chromogenic substrate. […]

In assay [2] the test system is Nrf2. The experiment in a line: RNAi (siRNA Nrf2/Keap1) experiment in DLD1 cells stimulated with DMF, Western blot of Nrf2 and NQO1. The class given is cell-based, human. The following applies: 30 μM DMF for 40 hours. Here is the method: DLD1 cells were grown in MEM supplemented with 10% fetal bovine serum. The cells were transfected with the indicated siRNA's using the Lipofectamine reagent (Invitrogen) according to the manufacturer's instructions and 30 hrs later stimulated with 30 μM DMF for 40 hours. The cells were harvested and processed for Western blotting analysis of Nrf2 and NQO1 levels as described in Example 1. Sources and the identity of reagents used in Examples 1 and 2 are specified Table 3 below: […]

The test system of assay [3] is Nrf2. Put plainly: Western blot of Nrf2 and NQO1 in DLD1 cells treated with DMF or MMF. It counts as cell-based, human. As to conditions: DLD1 cells in culture; 5, 15, or 50 μM; 16 hours. Here is the method:
Human colon carcinoma DLD1 cells were treated with DMF or MMF at indicated concentrations (5, 15, or 50 μM) for 16 hours, rinsed with PBS, and harvested into reducing SDS sample buffer. The lysates were subjected to SDS PAGE and the separated proteins were electrophoretically transferred onto nitrocellulose membranes for Western blot analysis. To detect Nrf2 and NQO1, the membranes were incubated with the respective primary antibodies overnight at 4° C., washed, and incubated with peroxidase-conjugated secondary antibodies followed by the chemiluminescent peroxidase substrate. Detection of the target protein band luminescence and image acquisition were done using CCD-equipped imaging station Kodak2000R.

As for `COC(=O)/C=C/C(=O)OC` [DMF], in the assay with Nrf2 [1], the “activation of Nrf2 in vivo (Nrf2 immunostaining, morphometric analysis, FIGS. 3 and 4)” value was “activation of Nrf2 in vivo”. Besides, in the assay on Nrf2 [2] (DLD1 cells transfected with Nrf2 or Keap1 siRNA), the “DMF-induced upregulation of NQO1, dependence on Nrf2 (FIG. 2)” value is “upregulation of NQO1 requires Nrf2”. For the same compound, the “Nrf2 agonism: cellular accumulation of Nrf2 and Nrf2 target gene expression (FIG. 2)” value with Nrf2 [2] (DLD1 cells) was “acts as an Nrf2 agonist”. In addition, the “activation of Nrf2 (Nrf2 and NQO1 protein levels, Western blot, FIG. 1)” value in the assay on Nrf2 [3] is reported as “potent activators of Nrf2”.
As for `COC(=O)/C=C/C(=O)O` [MMF], the “activation of Nrf2 in vivo (Nrf2 immunostaining, morphometric analysis, FIGS. 3 and 4)” value in the assay with Nrf2 [1] is on record as “activation of Nrf2 in vivo”. Further, the “activation of Nrf2 (Nrf2 and NQO1 protein levels, Western blot, FIG. 1)” value with Nrf2 [3] is reported as “potent activators of Nrf2”.
